From patent publication US20250346576A1, “KCNT1 INHIBITORS COMPRISING A PYRAZOLE CORE AND METHODS OF USE” (PRAXIS PRECISION MEDICINES, INC., priority 2022, published 2025)

Biological target: T1, KCNT1 (KNa1.1, Slack) (Homo sapiens, UniProt Q5JUK3)
T1 construct: expressed in transfected cells; host or cells: HEK-TREX (tetracycline inducible cell line)
T1 sequence (Q5JUK3 1-1230): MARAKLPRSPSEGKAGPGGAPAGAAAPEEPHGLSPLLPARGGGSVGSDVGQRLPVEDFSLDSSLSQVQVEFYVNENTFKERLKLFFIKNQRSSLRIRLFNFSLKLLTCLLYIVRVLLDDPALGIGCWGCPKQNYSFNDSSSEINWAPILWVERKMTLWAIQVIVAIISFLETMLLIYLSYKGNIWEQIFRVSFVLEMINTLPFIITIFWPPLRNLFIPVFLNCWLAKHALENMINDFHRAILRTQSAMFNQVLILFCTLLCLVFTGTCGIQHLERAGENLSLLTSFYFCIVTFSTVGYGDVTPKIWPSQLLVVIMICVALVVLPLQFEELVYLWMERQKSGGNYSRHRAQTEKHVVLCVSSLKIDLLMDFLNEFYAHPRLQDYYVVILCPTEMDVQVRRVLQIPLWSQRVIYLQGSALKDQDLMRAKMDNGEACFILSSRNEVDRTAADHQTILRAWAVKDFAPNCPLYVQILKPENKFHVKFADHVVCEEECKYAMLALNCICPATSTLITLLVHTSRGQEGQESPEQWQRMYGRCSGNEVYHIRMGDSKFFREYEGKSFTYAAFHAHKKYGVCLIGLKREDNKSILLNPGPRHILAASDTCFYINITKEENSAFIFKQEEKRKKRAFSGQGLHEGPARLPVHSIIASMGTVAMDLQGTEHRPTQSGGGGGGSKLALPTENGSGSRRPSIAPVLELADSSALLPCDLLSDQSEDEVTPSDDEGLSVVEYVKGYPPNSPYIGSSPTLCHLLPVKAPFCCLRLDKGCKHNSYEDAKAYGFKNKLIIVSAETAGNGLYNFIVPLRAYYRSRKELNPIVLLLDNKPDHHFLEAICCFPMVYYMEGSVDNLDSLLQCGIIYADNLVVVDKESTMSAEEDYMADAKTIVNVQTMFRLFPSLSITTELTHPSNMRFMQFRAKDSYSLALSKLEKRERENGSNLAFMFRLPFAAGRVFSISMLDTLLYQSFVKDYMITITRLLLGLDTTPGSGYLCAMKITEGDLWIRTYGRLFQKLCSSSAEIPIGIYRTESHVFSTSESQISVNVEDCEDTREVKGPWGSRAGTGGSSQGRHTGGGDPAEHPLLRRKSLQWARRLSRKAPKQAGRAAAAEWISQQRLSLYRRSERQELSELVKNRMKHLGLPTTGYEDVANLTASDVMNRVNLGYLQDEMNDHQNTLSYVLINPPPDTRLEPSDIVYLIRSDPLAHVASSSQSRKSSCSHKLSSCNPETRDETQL
Assay: KCNT1 patch clamp assay (SyncroPatch 384PE, tetracycline inducible HEK-TREX cell line)
Type: cell-based
Details: WT KCNT1, HEK-TREX cells, perforated patch, step from -80 mV to 0 mV, room temperature; read-out: WT (KCNT1 inhibition IC50)
Procedure: Inhibition of KCNT1 (KNa1.1, Slack) was evaluated using a tetracycline inducible cell line (HEK-TREX). Currents were recorded using the SyncroPatch 384PE automated, patch clamp system. Pulse generation and data collection were performed with PatchController384 V1.3.0 and DataController384 V1.2.1 (Nanion Technologies). The access resistance and apparent membrane capacitance were estimated using built-in protocols. Current was recorded in perforated patch mode (10 μM escin) from a population of cells. The cells were lifted, triturated, and resuspended at 800,000 cells/ml. The cells were allowed to recover in the cell hotel prior to experimentation. Currents were recorded at room temperature. The external solution contained the following (in mM): NaCl 105, NMDG 40, KCl 4, MgCl2 1, CaCl2 5, and HEPES 10 (pH=7.4, Osmolarity ˜300 mOsm). The extracellular solution was used as the wash, reference, and compound delivery solution. The internal solution contained the following (in mM): NaCl 70, KF 70, KCl 10, EGTA 5, HEPES 5, and Escin 0.01 (pH=7.2, Osmolarity ˜295 mOsm). Escin is made at a 5 mM stock in water, aliquoted, and stored at −20° C. The compound plate was created at 2× concentrated in the extracellular solution. The compound was diluted to 1:2 when added to the recording well. The amount of DMSO in the extracellular solution was held constant at the level used for the highest tested concentration. A holding potential of −80 mV with a 100 ms step to 0 mV was used. Mean current was measured during the step to 0 mV. […] The average mean current from 3 sweeps was calculated and the percent inhibition of each compound was calculated. The percent inhibition as a function of the compound concentration was fit with a Hill equation to derive IC50, slope, minimum parameters, and maximum parameters. If KCNT1 inhibition was less than 50% at the highest tested concentration or if an IC50 could not be calculated, then a percent inhibition was reported in place of the IC50.
In this table, “A” indicates IC50 of less than or equal to 1 μM; “B” indicates inhibition of between 1 μM to 20 μM; and “C” indicates inhibition of greater than or equal to 20 μM.

IC50	SMILES
≤ 1000 nM	Cn1nc(-c2ccnc(C(F)(F)F)c2)cc1CNC(=O)c1cc(C(F)F)nn1C [Compound 1033]
1000 to 20000 nM	CC(NC(=O)c1cc(C(F)(F)F)nn1C)c1cc(Cc2ccccc2)nn1C (stereo not shown) [Compound 1028]
≤ 1000 nM	Cn1nc(C(F)F)cc1C(=O)NC1(c2cc(-c3ccnc(C(F)(F)F)c3)nn2C)CC1 [Compound 1034]
≤ 1000 nM	Cc1cc(-c2cc(CNC(=O)c3cc(C(F)(F)F)nn3C)n(C)n2)c(F)cn1 [Compound 1041]
1000 to 20000 nM	CC(NC(=O)c1cc(C(F)(F)F)nn1C)c1cc(N(C)C2CCCC2)nn1C (stereo not shown) [Compound 1027]
≤ 1000 nM	Cn1nc(-c2ccnc(C(F)(F)F)c2)cc1CNC(=O)c1cc(C(F)(F)F)nn1C [Compound 1019]
≤ 1000 nM	Cc1c(-c2ccnc(C(F)(F)F)c2)nn(C)c1CNC(=O)c1cc(C(F)(F)F)nn1C [Compound 1030]
1000 to 20000 nM	CC(NC(=O)c1cc(C(F)(F)F)nn1C)c1cc(C(F)(F)F)nn1C (single isomer, unassigned) [Compound 1015]
≥ 20000 nM	CC(NC(=O)c1cc(C(F)(F)F)nn1C)c1cc(-c2ccc(C#N)nc2)nn1C (stereo not shown) [Compound 1016]
1000 to 20000 nM	CC(NC(=O)c1cc(C(F)(F)F)nn1C)c1cc(-c2ccccc2)nn1C (single isomer, unassigned) [Compound 1010]
≤ 1000 nM	CCn1nc(-c2ccnc(C(F)(F)F)c2)cc1CNC(=O)c1cc(C(F)(F)F)nn1C [Compound 1029]
≥ 20000 nM	CC(NC(=O)c1cc(C(F)(F)F)nn1C)c1cc(-c2ccc(CO)nc2)nn1C (stereo not shown) [Compound 1009]
1000 to 20000 nM	CC(NC(=O)c1cc(C(F)(F)F)nn1C)c1cc(Nc2ccccc2)nn1C (stereo not shown) [Compound 1024]
1000 to 20000 nM	CC(NC(=O)c1cc(C(F)(F)F)nn1C)c1cc(-c2ccc(C(F)(F)F)nc2)nn1C (stereo not shown) [Compound 1018]
≤ 1000 nM	CCOc1cc(-c2cc(CNC(=O)c3cc(C(F)(F)F)nn3C)n(C)n2)ccn1 [Compound 1037]
1000 to 20000 nM	Cc1cc(-c2cc(C(C)NC(=O)c3cc(C(F)(F)F)nn3C)n(C)n2)ccn1 (single isomer, unassigned) [Compound 1005]
≤ 1000 nM	Cn1nc(-c2ccnc(C(F)(F)F)c2)cc1CNC(=O)c1ccccc1 [Compound 1040]
≤ 1000 nM	COc1ccc(-c2cc(C(C)NC(=O)c3cc(C(F)(F)F)nn3C)n(C)n2)cn1 (stereo not shown) [Compound 1013]
≥ 20000 nM	CC(C)Oc1cc(C(C)NC(=O)c2cc(C(F)(F)F)nn2C)n(C)n1 (stereo not shown) [Compound 1031]
≥ 20000 nM	CC(NC(=O)c1cc(C(F)(F)F)nn1C)c1cc(-c2ccc(C(N)=O)cc2)nn1C (stereo not shown) [Compound 1022]

IC50	SMILES
≥ 20000 nM	CC(NC(=O)c1cc(C(F)(F)F)nn1C)c1cc(NC2CCCC2)nn1C (stereo not shown) [Compound 1026]
1000 to 20000 nM	Cc1cc(-c2cc(C(C)NC(=O)c3cc(C(F)(F)F)nn3C)n(C)n2)ccn1 (single isomer, unassigned) [Compound 1006]
1000 to 20000 nM	CC(NC(=O)c1cc(C(F)(F)F)nn1C)c1cc(-c2ccncc2)nn1C (single isomer, unassigned) [Compound 1008]
≤ 1000 nM	CC(C)c1cc(C(=O)NCc2cc(-c3ccnc(C(F)(F)F)c3)nn2C)n(C)n1 [Compound 1039]
≥ 20000 nM	Cc1ncc(-c2cc(C(C)NC(=O)c3cc(C(F)(F)F)nn3C)n(C)n2)cn1 (stereo not shown) [Compound 1012]
1000 to 20000 nM	CC(NC(=O)c1cc(C(F)(F)F)nn1C)c1cc(C(F)(F)F)nn1C (single isomer, unassigned) [Compound 1014]
≥ 20000 nM	CC(NC(=O)c1cc(C(F)(F)F)nn1C)c1cc(-c2ccncc2)nn1C (single isomer, unassigned) [Compound 1003]
1000 to 20000 nM	CC(NC(=O)c1cc(C(F)(F)F)nn1C)c1cc(N(C)c2ccccc2)nn1C (stereo not shown) [Compound 1025]
≤ 1000 nM	COc1cc(-c2cc(CNC(=O)c3cc(C(F)(F)F)nn3C)n(C)n2)ccn1 [Compound 1036]
1000 to 20000 nM	CC(NC(=O)c1cc(C(F)(F)F)nn1C)c1cc(Oc2ccccc2)nn1C (stereo not shown) [Compound 1032]
1000 to 20000 nM	CC(NC(=O)c1cc(C(F)(F)F)nn1C)c1cc(N2CCCCC2)nn1C (stereo not shown) [Compound 1023]
1000 to 20000 nM	Cc1cccc(-c2cc(C(C)NC(=O)c3cc(C(F)(F)F)nn3C)n(C)n2)n1 (stereo not shown) [Compound 1017]
≤ 1000 nM	CC(NC(=O)c1cc(C(F)(F)F)nn1C)c1cc(-c2ccnc(C(F)(F)F)c2)nn1C (stereo not shown) [Compound 1020]
≤ 1000 nM	CCn1nc(-c2ccnc(C(F)(F)F)c2)cc1C(C)NC(=O)c1cc(C(F)(F)F)nn1C (single isomer, unassigned) [Compound 1004]
1000 to 20000 nM	CC(NC(=O)c1cc(C(F)(F)F)nn1C)c1cc(-c2ccc(C#N)cc2)nn1C (stereo not shown) [Compound 1021]
≤ 1000 nM	CC(NC(=O)c1cc(C(F)(F)F)nn1C)c1cc(-c2ccnc(C(F)(F)F)c2)nn1C (single isomer, unassigned) [Compound 1001]
≤ 1000 nM	CCn1nc(-c2ccnc(C(F)(F)F)c2)cc1C(C)NC(=O)c1cc(C(F)(F)F)nn1C (single isomer, unassigned) [Compound 1007]
≤ 1000 nM	Cn1nc(-c2ccnc(C3CC3)c2)cc1CNC(=O)c1cc(C(F)(F)F)nn1C [Compound 1038]
≤ 1000 nM	Cn1nc(C(F)(F)F)cc1C(=O)NC1(c2cc(-c3ccnc(C(F)(F)F)c3)nn2C)CC1 [Compound 1035]
1000 to 20000 nM	CC(NC(=O)c1cc(C(F)(F)F)nn1C)c1cc(-c2ccccc2)nn1C (single isomer, unassigned) [Compound 1011]
